Source: paper PMC4849758, “Rational Structure-Based Rescaffolding Approach to De Novo Design of Interleukin 10 (IL-10) Receptor-1 Mimetics” (PLoS ONE, 2016)
Bridge positions count the residues as written; N and C are the ends. Square brackets hold non-standard residues; d marks the D form. Peptide text beside a SMILES is read from it. * marks the point of attachment. Trp(5-OH) = N[C@@H](Cc1c[nH]c2ccc(O)cc12)C(=O)O; Butanoyl(4-guanidino) = N=C(N)NCCCC(=O)*

Columns and labels:
mIL-10C149Y [1] = target: T1, mIL-10C149Y (Mus musculus, UniProt P18893, C167Y); test: Isothermal titration calorimetry (ITC); assay type: binding, murine; settings: for TΔS, entropic component of binding / ΔH, enthalpic term of binding: ITC; for TΔS, entropic component of binding / ΔH, enthalpic term of binding / Kd: 298 K; for Kd: inferred from ITC thermodynamic data, single site model, variable stoichiometry; for fold increase of binding affinity with respect to M2-M4 / fold increase of binding with respect to M1: ratio of Kd values; for fold increase of binding with respect to M1: M1 Kd from thermal denaturation
T1 construct: His8 tag (LEHHHHHHHH) from pET41b(+) (C); made in house
T1 sequence (P18893 19-178 C167Y): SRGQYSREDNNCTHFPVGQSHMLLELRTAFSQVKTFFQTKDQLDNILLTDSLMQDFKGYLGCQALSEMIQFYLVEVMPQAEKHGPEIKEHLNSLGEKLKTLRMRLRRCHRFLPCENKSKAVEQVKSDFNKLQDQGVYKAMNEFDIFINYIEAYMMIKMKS
From the text: Further ligand optimization was accomplished by the introduction of an additional N-terminal H-bond acceptor such as Gln or Glu (M5, M6), which would allow interactions with the cationic side chains of IL-10R27 and IL-10K34 (helix A) or with IL-10N148 (helix F’) (Fig 2A). Favourable energies obtained for the interaction of IL-10 with an aliphatic carboxylate chemical probe supported this rationale. Furthermore, residues IL-10L46 (loop AB) and IL-10I145 (helix F’) would additionally contribute with van der Waals interactions with the aliphatic moieties of the side chains of the residues introduced at the N-teminus. […] Furthermore, these measurements supported the expected stoichiometry 2:1 mimetic:dimer-protein binding ratio as previously observed for the IL-10R1/IL-10 complex.
The final constant heat signals were subtracted to correct for the solution enthalpy of the respective IL-10R1 mimetics. The resulting integrated heat curve was analyzed with the associated software Origin 9 [74] allowing a variable stoichiometry but restriction to a single Kd value (identical binding sites of the dimeric protein).

mIL-10C149Y [2] = target: T1, mIL-10C149Y; test: Thermal denaturation by circular dichroism (CD), Kd estimate from two-state unfolding model; assay type: binding, murine; settings: 4.5 μM mimetic; for increase of native protein structure in presence of mimetic, percentage of the total change in the CD signal: at 332 K, average CD signal 215-230 nm, 2 μM mIL-10C149Y; for Kd: calculated from thermal denaturation CD data, 2 μM mIL-10C149Y dimer, two-state unfolding model, lower affinity limit reported
Description: M1 was chemically synthesized, and its experimental binding affinity towards IL-10 was assessed by thermal stability measurements using circular dichroism (CD) and fluorescence (see materials and methods). For these studies, we used the readily available murine IL-10 mutant mIL-10C149Y in which Cys149 was replaced by the corresponding Tyr residue of the human protein, as it was previously shown to enhance protein refolding yield. Furthermore, this tyrosine would enhance the sensitivity of tryptophan fluorescence measurements (i.e. as stated above, it can act as energy donor for the tryptophan residue introduced as label in the mimetics).
Complex formation between M1 and mIL-10C149Y was determined by thermal denaturation using CD and the well-known negative ellipticity of IL-10 between 200 to 300 nm. […] The obtained curves shift to higher temperatures in the presence of M1. The shift is due to a lower degree of unfolded protein at any temperature in the presence of mimetic M1 as compared to the denaturation of mIL-10C149Y alone. […] At 332 K, the presence of M1 increased the native protein structure by 8%.
CD spectra were recorded with a J-815 instrument (Jasco, Gross-Umstadt, Germany) from 195 to 300 nm in 1-cm cuvettes at concentrations of 2 μM of mIL-10C149Y (dimer) and 4.5 μM of mimetics M1-M4. Ellipticity θ was recorded in millidegrees. Samples were heated from 298 to 364 K at a rate of 2 K/min under constant stirring to determine stabilization of IL-10/mimetic complexes. Estimates of binding affinities were derived with the assumption of a two state unfolding of mIL-10C149Y. The mimetics were assumed to stabilize exclusively the folded state. These simplifications allow applying equilibrium thermodynamics, such that the fraction Sn of the native state of mIL-10C149Y can be approximated: Sn = (1+ [M] Kd^-1 +Ku)^-1. Kd is the estimated dissociation constant of the mimetic, [M] its concentration. Ku is the temperature-dependent unfolding equilibrium constant (Ku = [denatured]/[native]) as measured by the unfolding curve of mIL-10C149Y in the absence of mimetics. […] In this case, the measured CD curves would be actually compatible with much higher mimetic affinities, because a local stabilization of the mimetic binding epitope on mIL-10C149Y is not counted as binding in the applied two state model but it is very likely to occur. For consistency, we have not explored the higher affinity limit that would still be compatible with the data. Instead, we report only the lower affinity range that complies with the assumptions, in order to prevent bias for overestimated mimetic affinities. […] Absolute thermodynamic parameters could only be obtained by isothermal titration calorimetry with the most promising mimetics. This of course required the initial confirmation of the binding of the precursor molecules which was accomplished by CD and Fluorescence Spectroscopy. Fluorescence emission at 360 nm was monitored simultaneously with the CD scan (the measuring beam served as the excitation light) using a second monochromator and photomultiplier in 90° geometry with respect to the CD absorption path. Thereby, temperature-dependent excitation spectra of the tryptophan at position two in the synthetic IL-10R1 mimetics were additionally obtained with the CD data acquisition.

| SMILES | TΔS, entropic component of binding (mIL-10C149Y [1]) [kcal/mol] | ΔH, enthalpic term of binding (mIL-10C149Y [1]) [kcal/mol] | Kd (mIL-10C149Y [1]) [µM] | fold increase of binding affinity with respect to M2-M4 (mIL-10C149Y [1]) | fold increase of binding with respect to M1 (mIL-10C149Y [1]) | increase of native protein structure in presence of mimetic, percentage of the total change in the CD signal (mIL-10C149Y [2]) [%] | Kd (mIL-10C149Y [2]) [µM] |
| --- | --- | --- | --- | --- | --- | --- | --- |
| CC(=O)N[C@@H](CCC(=O)O)C(=O)N[C@@H](CCCNC(=N)N)C(=O)N[C@H]1CCCCNC(=O)C[C@@H](C(=O)N[C@H]2CCCCNC(=O)C[C@@H](C(=O)N[C@@H](CCCNC(=N)N)C(=O)N[C@@H](C)C(N)=O)NC(=O)[C@H](C(C)C)NC(=O)[C@H](CCCCN)NC(=O)[C@H](CCCNC(=N)N)NC2=O)NC(=O)[C@H](Cc2ccc(O)cc2)NC(=O)[C@H](CCCNC(=N)N)NC(=O)[C@H](Cc2c[nH]c3ccccc23)NC1=O [M6] (Ac-ERKWRYDKRKVDRA-NH2; lactam 3-7, 8-12) | 9.5 | -0.5 | 0.04 ± 0.02 | more than 70 fold | more than 400 fold |  |  |
| CC(C)[C@@H]1NC(=O)[C@H](CCCCN)NC(=O)[C@H](CCCNC(=N)N)NC(=O)[C@@H](NC(=O)[C@@H]2CC(=O)NCCCC[C@H](NC(=O)CCCNC(=N)N)C(=O)N[C@@H](Cc3c[nH]c4ccc(O)cc34)C(=O)N[C@@H](CCCNC(=N)N)C(=O)N[C@@H](Cc3ccc(O)cc3)C(=O)N2)CCCCNC(=O)C[C@@H](C(=O)N[C@@H](CCCNC(=N)N)C(=O)N[C@@H](C)C(N)=O)NC1=O [M3] ({Butanoyl(4-guanidino)}-K[Trp(5-OH)]RYDKRKVDRA-NH2; lactam 1-5, 6-10) |  |  |  |  |  | 12 | 6.7 |
| CC(=O)N[C@@H](CCC(=O)O)C(=O)N[C@@H](CCCCN)C(=O)N[C@H]1CCCCNC(=O)C[C@@H](C(=O)N[C@H]2CCCCNC(=O)C[C@@H](C(=O)N[C@@H](CCCNC(=N)N)C(=O)N[C@@H](C)C(N)=O)NC(=O)[C@H](C(C)C)NC(=O)[C@H](CCCCN)NC(=O)[C@H](CCCNC(=N)N)NC2=O)NC(=O)[C@H](Cc2ccc(O)cc2)NC(=O)[C@H](CCCNC(=N)N)NC(=O)[C@H](Cc2c[nH]c3ccccc23)NC1=O [M5] (Ac-EKKWRYDKRKVDRA-NH2; lactam 3-7, 8-12) | 9.5 | -0.5 | 0.07 ± 0.02 | more than 70 fold | more than 400 fold |  |  |
| CC(C)[C@@H]1NC(=O)[C@H](CCCCN)NC(=O)[C@H](CCCNC(=N)N)NC(=O)[C@@H](NC(=O)[C@@H]2CC(=O)NCCCC[C@H](NC(=O)CCCNC(=N)N)C(=O)N[C@@H](Cc3c[nH]c4ccccc34)C(=O)N[C@@H](CCCNC(=N)N)C(=O)N[C@@H](Cc3ccc(O)cc3)C(=O)N2)CCCCNC(=O)C[C@@H](C(=O)N[C@@H](CCCNC(=N)N)C(=O)N[C@@H](C)C(N)=O)NC1=O [M2] ({Butanoyl(4-guanidino)}-KWRYDKRKVDRA-NH2; lactam 1-5, 6-10) |  |  |  |  |  | 16 | 5 |
| CC(=O)N[C@H]1CCCCNC(=O)C[C@@H](C(=O)N[C@H]2CCCCNC(=O)C[C@@H](C(=O)N[C@@H](CCCNC(=N)N)C(=O)N[C@@H](C)C(N)=O)NC(=O)[C@H](C(C)C)NC(=O)[C@H](CCCCN)NC(=O)[C@H](CCCNC(=N)N)NC2=O)NC(=O)[C@H](Cc2ccc(O)cc2)NC(=O)[C@H](CCCNC(=N)N)NC(=O)[C@H](Cc2c[nH]c3ccccc23)NC1=O [M1] (Ac-KWRYDKRKVDRA-NH2; lactam 1-5, 6-10) |  |  |  |  |  | 8 | > 30 |
| CC(=O)N[C@@H](CCCNC(=N)N)C(=O)N[C@H]1CCCCNC(=O)C[C@@H](C(=O)N[C@H]2CCCCNC(=O)C[C@@H](C(=O)N[C@@H](CCCNC(=N)N)C(=O)N[C@@H](C)C(N)=O)NC(=O)[C@H](C(C)C)NC(=O)[C@H](CCCCN)NC(=O)[C@H](CCCNC(=N)N)NC2=O)NC(=O)[C@H](Cc2ccc(O)cc2)NC(=O)[C@H](CCCNC(=N)N)NC(=O)[C@H](Cc2c[nH]c3ccccc23)NC1=O [M4] (Ac-RKWRYDKRKVDRA-NH2; lactam 2-6, 7-11) |  |  |  |  |  | 11 | 8.4 |
